In one assay the test system is S. mutans (Sm) biofilm. The assay can be described thus: S. mutans biofilm formation, fluorescence staining (confocal). Format: cell-based, Streptococcus mutans (ATCC 25175). The settings on record: D-gal 200 mM vs furanone compound 20 μM. As for the experimental part: Further, the inhibitory effect of D-gal on Sm biofilm formation was examined by fluorescent staining. 2 ml (2×10^7/ml) of Sm culture broth was used, and 200 mM of D-gal and 20 μM of the furanone compound were used. Biofilms formed on the cover slip were stained with fluorescent materials using the live/dead-BacLight viability kit (Invitrogen, Grand Island, N.Y., USA) and observed using a confocal microscope (Carl Zeiss, LSM 700). […] Fluorescence intensities of the obtained individual fluorescence images were quantified using ZEN 2010 program of a confocal microscope, and shown in FIG. 16.

Another assay concerns F. nucleatum. The assay can be described thus: Effect on bacterial growth of F. nucleatum (OD 600 nm). Format: cell-based. The note with it: D-galactose 100 mM, 37° C., anaerobic, 24-48 hours, vs control 0 mM. How it is done:
In detail, F. nucleatum was cultured in the presence of 0 mM (control group) and 100 mM of D-galactose at 37° C. under anaerobic conditions for 24-48 hours, and then optical density at 600 nm was determined to measure cell growth.

Assay [1] concerns P. gingivalis (Pg) biofilm. The assay can be described thus: Pg biofilm formation induced by Fn AI-2, fluorescence staining (confocal). The class given is cell-based, P. gingivalis (ATCC 33277). The note with it: D-gal 200 mM vs furanone 20 μM. How it is done: Further, inhibitory effects of D-gal on Pg biofilm formation induced by Fn AI-2 were examined by fluorescence staining. 2 ml of Pg culture broth (the number of bacteria: 4×10^8/ml) was used, and Fn AI-2 was used in a volume of 10% (v/v) with respect to the total volume of a mixture with Pg culture broth. 200 mM of D-gal was used, and for comparison, the same test was performed using 20 μM of the furanone compound, instead of D-gal. Biofilms formed on the cover slip were stained with fluorescent materials using the live/dead-BacLight viability kit (Invitrogen, Grand Island, N.Y., USA) and observed using a confocal microscope (Carl Zeiss, LSM 700). […] Fluorescence intensities of the obtained individual fluorescence images were quantified using ZEN 2010 program of a confocal microscope, and shown in FIG. 6.

Take `O=C[C@H](O)[C@@H](O)[C@@H](O)[C@H](O)CO` [D-gal, D-galactose]: the “inhibitory effect on Sm biofilm formation, in words” value with S. mutans (Sm) biofilm is on record as “superior to that of the furanone compound”. The “effect on bacterial growth (cell growth curve, OD 600 nm), in words” value in the assay with F. nucleatum is listed as “does not affect bacterial growth”. Besides, the “inhibitory effect on Pg biofilm formation, in words” value in assay [1] is “equivalent to that of the furanone compound”.

For the origin of these results see US20190224222A1, “METHOD OF INHIBITING QUORUM SENSING USING D-GALACTOSE” (Seoul National University R&DB Foundation, priority 2014, published 2019).
